Source: patent US11345694B2, “Antibacterial compounds” (DISCUVA LTD., priority 2017, dated 2022)
In brackets after ≈: the same amount, converted by molar mass.

How the values were obtained:
[1] = system: K. pneumoniae H154680676 (KP5); test: MIC broth microdilution; assay type: cell-based, Klebsiella pneumoniae; details: Klebsiella pneumoniae
Method in brief: (§1)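 Growth inhibition scored after 20-24 h at 37 °C in ambient air, in cation-adjusted Müller-Hinton broth; MIC is the lowest inhibitory concentration. Compounds serially diluted two-fold over 0.39-200 μM final (DMSO up to 2%), per CLSI microdilution guidelines.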

[2] = system: K. pneumoniae H154640784 (KP7); test: MIC broth microdilution; assay type: cell-based, Klebsiella pneumoniae; details: Klebsiella pneumoniae
Method in brief: as §1

[3] = system: K. pneumoniae H151440671 (KP10); test: MIC broth microdilution; assay type: cell-based, Klebsiella pneumoniae; details: Klebsiella pneumoniae
Method in brief: as §1

[4] = system: K. pneumoniae H154300688 (KP9); test: MIC broth microdilution; assay type: cell-based, Klebsiella pneumoniae; details: Klebsiella pneumoniae
Method in brief: as §1

[5] = system: K. pneumoniae ATCC 700603 (KP3); test: MIC broth microdilution; assay type: cell-based, Klebsiella pneumoniae; details: Klebsiella pneumoniae, ATCC700603
Method in brief: as §1

[6] = system: K. pneumoniae H154020667 (KP6); test: MIC broth microdilution; assay type: cell-based, Klebsiella pneumoniae; details: Klebsiella pneumoniae
Method in brief: as §1

[7] = system: K. pneumoniae H154600588 (KP8); test: MIC broth microdilution; assay type: cell-based, Klebsiella pneumoniae; details: Klebsiella pneumoniae
Method in brief: as §1

[8] = system: K. pneumoniae NCTC 13438 (KP1); test: MIC broth microdilution; assay type: cell-based, Klebsiella pneumoniae; details: Klebsiella pneumoniae, NCTC13438
Method in brief: as §1

[9] = system: Staphylococcus aureus ATCC 35556 (SA); test: MIC broth microdilution; assay type: cell-based; details: ATCC35556
Method in brief: (§2)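 Planktonic cells were tested by CLSI broth microdilution in cation-adjusted Müller-Hinton broth, with compounds two-fold serially diluted to final concentrations of 0.39-200 μM (DMSO at most 2% final). After 20-24 h at 37° C in ambient air, MIC was taken as the lowest concentration inhibiting growth.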

[10] = system: Klebsiella pneumoniae ATCC 51504 (KP4); test: MIC broth microdilution; assay type: cell-based; details: ATCC51504
Method in brief: as §2

[11] = system: Klebsiella pneumoniae ATCC 10031 (KP2); test: MIC broth microdilution; assay type: cell-based; details: ATCC10031
Method in brief: as §1

[12] = system: Pseudomonas aeruginosa ATCC 33359 (PA); test: MIC broth microdilution; assay type: cell-based; details: ATCC33359
Method in brief: as §2

[13] = system: Escherichia coli K12 (EC); test: MIC broth microdilution; assay type: cell-based
Method in brief: as §2

[14] = system: Acinetobacter baumannii ATCC 17978 (AB); test: MIC broth microdilution; assay type: cell-based; details: ATCC17978
Method in brief: as §2

[15] = system: human hepatocarcinoma cell line ATCC HB-8065 (HepG2); test: Human cell viability (CellTiter-Glo); assay type: cell-based; details: Homo sapiens; HepG2 cells, 24 h incubation, CellTiter-Glo luminescence, 0.2-100 μM; read-out: IC50 values against the HepG2 cell line
Method in brief: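 HepG2 cells were seeded at 20,000 cells/well in MEM with 10% FBS and, after 24 h, exposed for 24 h at 37° C. to two-fold dilutions (final 0.2-100 μM) in MEM with 1% FBS and 1% DMSO. Viability was read by CellTiter-Glo luminescence, with IC50 from a 4-parameter logistic fit.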

[16] = system: E. coli NCTC 13441 (UPEC); test: MIC broth microdilution; assay type: cell-based, Escherichia coli; details: Escherichia coli, NCTC13441
Method in brief: as §2

SMILES	MIC [1]	MIC [2]	MIC [3]	MIC [4]	MIC [5]	MIC [6]	MIC [7]	MIC [8]	MIC [9]	MIC [10]	MIC [11]	MIC [12]	MIC [13]	MIC [14]	IC50 [15]	MIC [16]
Cc1cc(-c2[nH]c(N)nc2-c2cc(F)c3c(c2)OCCO3)ccn1 [Example 56, 4-(8-fluoro-2,3-dihydrobenzo[b][1,4]dioxin-6-yl)-5-(2-methylpyridin-4-yl)-1H-imidazol-2-amine]	≤ 1 µM	1 to 10 µM (≈ 0.326 to 3.26 µg/mL)	≤ 1 µM	1 to 10 µM (≈ 0.326 to 3.26 µg/mL)	1 to 10 µM (≈ 0.326 to 3.26 µg/mL)	≤ 1 µM	1 to 10 µM (≈ 0.326 to 3.26 µg/mL)	1 to 10 µM (≈ 0.326 to 3.26 µg/mL)	> 100 µM	≤ 1 µM	≤ 1 µM	> 100 µM	1 to 10 µM (≈ 0.326 to 3.26 µg/mL)	> 100 µM	> 100 µM	1 to 10 µM (≈ 0.326 to 3.26 µg/mL)
Cc1cc(-c2[nH]c(N)nc2-c2ccc3c(c2)N(CC2CC2)CCO3)ccn1 [Example 92, 4-(4-(Cyclopropyl-methyl)-3,4-dihydro-2H-benzo[b][1,4]oxazin-6-yl)-5-(2-methylpyridin-4-yl)-1H-imidazol-2-amine]	≤ 1 µM	1 to 10 µM (≈ 0.361 to 3.61 µg/mL)	1 to 10 µM (≈ 0.361 to 3.61 µg/mL)	1 to 10 µM (≈ 0.361 to 3.61 µg/mL)	1 to 10 µM (≈ 0.361 to 3.61 µg/mL)	≤ 1 µM	1 to 10 µM (≈ 0.361 to 3.61 µg/mL)	1 to 10 µM (≈ 0.361 to 3.61 µg/mL)	> 100 µM	1 to 10 µM (≈ 0.361 to 3.61 µg/mL)	≤ 1 µM	> 100 µM	≤ 1 µM	> 100 µM	25 to 100 µM	1 to 10 µM (≈ 0.361 to 3.61 µg/mL)
Cc1cc(-c2[nH]c(N)nc2-c2cc(F)c3c(c2)NCCO3)ccn1 [Example 49, 4-(8-Fluoro-3,4-dihydro-2H-benzo[b][1,4]oxazin-6-yl)-5-(2-methylpyridin-4-yl)-1H-imidazol-2-amine]	≤ 1 µM	1 to 10 µM (≈ 0.325 to 3.25 µg/mL)	1 to 10 µM (≈ 0.325 to 3.25 µg/mL)	1 to 10 µM (≈ 0.325 to 3.25 µg/mL)	1 to 10 µM (≈ 0.325 to 3.25 µg/mL)	≤ 1 µM	1 to 10 µM (≈ 0.325 to 3.25 µg/mL)	1 to 10 µM (≈ 0.325 to 3.25 µg/mL)	> 100 µM	≤ 1 µM	≤ 1 µM	> 100 µM	≤ 1 µM	> 100 µM	> 100 µM	1 to 10 µM (≈ 0.325 to 3.25 µg/mL)
COCCN1CCOc2ccc(-c3nc(N)[nH]c3-c3ccnc(C)c3)cc21 [Example 64, 4-(4-(2-Methoxyethyl)-3,4-dihydro-2H-benzo[b][1,4]oxazin-6-yl)-5-(2-methylpyridin-4-yl)-1H-imidazol-2-amine]	1 to 10 µM (≈ 0.365 to 3.65 µg/mL)	1 to 10 µM (≈ 0.365 to 3.65 µg/mL)	1 to 10 µM (≈ 0.365 to 3.65 µg/mL)	1 to 10 µM (≈ 0.365 to 3.65 µg/mL)	1 to 10 µM (≈ 0.365 to 3.65 µg/mL)	1 to 10 µM (≈ 0.365 to 3.65 µg/mL)	1 to 10 µM (≈ 0.365 to 3.65 µg/mL)	1 to 10 µM (≈ 0.365 to 3.65 µg/mL)	> 100 µM	1 to 10 µM (≈ 0.365 to 3.65 µg/mL)	≤ 1 µM	> 100 µM	1 to 10 µM (≈ 0.365 to 3.65 µg/mL)	> 100 µM	> 100 µM	≤ 1 µM

Continued, values first:

MIC [1]	MIC [2]	MIC [3]	MIC [4]	MIC [5]	MIC [6]	MIC [7]	MIC [8]	MIC [9]	MIC [10]	MIC [11]	MIC [12]	MIC [13]	MIC [14]	IC50 [15]	MIC [16]	SMILES
1 to 10 µM (≈ 0.299 to 2.99 µg/mL)	10 to 100 µM (≈ 2.99 to 29.9 µg/mL)	1 to 10 µM (≈ 0.299 to 2.99 µg/mL)	1 to 10 µM (≈ 0.299 to 2.99 µg/mL)	10 to 100 µM (≈ 2.99 to 29.9 µg/mL)	1 to 10 µM (≈ 0.299 to 2.99 µg/mL)	10 to 100 µM (≈ 2.99 to 29.9 µg/mL)	10 to 100 µM (≈ 2.99 to 29.9 µg/mL)	> 100 µM		≤ 1 µM	> 100 µM	≤ 1 µM	> 100 µM	> 100 µM	≤ 1 µM	COc1ncc(-c2nc(N)[nH]c2-c2ccnc(C)c2)cc1F [Example 29, 4-(5-Fluoro-6-methoxypyridin-3-yl)-5-(2-methylpyridin-4-yl)-1H-imidazol-2-amine]
1 to 10 µM (≈ 0.315 to 3.15 µg/mL)	10 to 100 µM (≈ 3.15 to 31.5 µg/mL)	1 to 10 µM (≈ 0.315 to 3.15 µg/mL)	1 to 10 µM (≈ 0.315 to 3.15 µg/mL)	10 to 100 µM (≈ 3.15 to 31.5 µg/mL)	1 to 10 µM (≈ 0.315 to 3.15 µg/mL)	10 to 100 µM (≈ 3.15 to 31.5 µg/mL)	10 to 100 µM (≈ 3.15 to 31.5 µg/mL)	> 100 µM		≤ 1 µM	> 100 µM	1 to 10 µM (≈ 0.315 to 3.15 µg/mL)	> 100 µM	> 100 µM	1 to 10 µM (≈ 0.315 to 3.15 µg/mL)	COc1ccc(-c2nc(N)[nH]c2-c2ccnc(C)c2)cc1Cl [Example 12, 4-(3-Chloro-4-methoxyphenyl)-5-(2-methylpyridin-4-yl)-1H-imidazol-2-amine]
							10 to 100 µM (≈ 3.38 to 33.8 µg/mL)	> 100 µM		≤ 1 µM	> 100 µM	1 to 10 µM (≈ 0.338 to 3.38 µg/mL)	> 100 µM	25 to 100 µM	1 to 10 µM (≈ 0.338 to 3.38 µg/mL)	Cc1cc(-c2nc(N)[nH]c2-c2ccc(OCC3CC3)c(F)c2)ccn1 [Example 13, 5-(4-(Cyclopropylmethoxy)-3-fluorophenyl)-4-(2-methylpyridin-4-yl)-1H-imidazol-2-amine]
